Laboratory results: patent US20250144067A1, “PERSONALIZED STARVATION THERAPY FOR CANCER” (Faeth Therapeutics, Inc., priority 2021, published 2025)
Counter-ions that a name gives are not always drawn.

System: NCI-H292 lung cancer cells
Assay: FDA drug screening, complete media vs cholesterol-free media without statin (TABLE 1)
Assay type: cell-based, human
Conditions: not given

SMILES | Cholesterol-free | Complete | Difference
CC(=O)OCC1=C(C(=O)O)N2C(=O)[C@@H](NC(=O)CSc3ccncc3)[C@H]2SC1 [Cephapirin (sodium)] | 0.9897 | 1.131 | 0.14
CCN(CC)CCCC(C)Nc1ccnc2cc(Cl)ccc12 (centres unmarked) [Chloroquine] | 1.226 | 0.9181 | −0.31

Same assay, conditions: Complete minus Cholesterol-free; >0 enhanced anti-cancer activity, about 0 neutral, <0 antagonist

SMILES | Difference
CC(C)(O/N=C(\C(=O)N[C@@H]1C(=O)N2C(C(=O)[O-])=C(C[n+]3ccccc3)CS[C@H]12)c1csc(N)n1)C(=O)O [Ceftazidime] | −0.05
CO/N=C(\C(=O)N[C@@H]1C(=O)N2C(C(=O)O)=CCS[C@H]12)c1csc(N)n1 [Ceftizoxime] | 0.03
CO/N=C(\C(=O)N[C@@H]1C(=O)N2C(C(=O)[O-])=C(COC(N)=O)CS[C@H]12)c1ccco1.[Na+] [Cefuroxime (sodium)] | −0.19
Cc1cc(Nc2ncc(Cl)c(Nc3ccccc3S(=O)(=O)C(C)C)n2)c(OC(C)C)cc1C1CCNCC1 [Ceritinib dihydrochloride] | −0.02
Cc1cc(Nc2ncc(Cl)c(Nc3ccccc3S(=O)(=O)C(C)C)n2)c(OC(C)C)cc1C1CCNCC1 [Ceritinib] | −0.05
O=C(O)COCCN1CCN(C(c2ccccc2)c2ccc(Cl)cc2)CC1 (centres unmarked) [Cetirizine (dihydrochloride)] | −0.28
[H]/N=C(\N/C(=N/[H])NCCCCCCNC(=N)NC(=N)Nc1ccc(Cl)cc1)Nc1ccc(Cl)cc1 [Chlorhexidine] | 0.04
CC(C)(O)C(Cl)(Cl)Cl [Chlorobutanol] | 0.02
CCN(CC)CCOC(=O)c1ccc(N)cc1Cl [Chloroprocaine (hydrochloride)] | −0.28

Same assay, conditions: Complete minus Cholesterol-free; […]

SMILES | Difference
CCCCCCCCCCCCCCCC[n+]1ccccc1.O.[Cl-] [Cetylpyridinium (chloride monohydrate)] | 0.03
CCCCCCCCCCCCCCCC[n+]1ccccc1.[Cl-] [Cetylpyridinium (chloride)] | −0.03

Same assay, conditions: NCI-H292 cells, cholesterol-free media without statin

SMILES | Cholesterol-free
CO/N=C(\C(=O)N[C@@H]1C(=O)N2C(C(=O)[O-])=C(COC(N)=O)CS[C@H]12)c1ccco1.[Na+] [Cefuroxime (sodium)] | 1.146
O=C(O)COCCN1CCN(C(c2ccccc2)c2ccc(Cl)cc2)CC1 (centres unmarked) [Cetirizine (dihydrochloride)] | 1.185
CCN(CC)CCOC(=O)c1ccc(N)cc1Cl [Chloroprocaine (hydrochloride)] | 1.161

Same assay, conditions: NCI-H292 cells, cholesterol-free media without statin, FDA drug library screen

SMILES | Cholesterol-free
CC(C)(O/N=C(\C(=O)N[C@@H]1C(=O)N2C(C(=O)[O-])=C(C[n+]3ccccc3)CS[C@H]12)c1csc(N)n1)C(=O)O [Ceftazidime] | 0.9478
CO/N=C(\C(=O)N[C@@H]1C(=O)N2C(C(=O)O)=CCS[C@H]12)c1csc(N)n1 [Ceftizoxime] | 1.031
Cc1cc(Nc2ncc(Cl)c(Nc3ccccc3S(=O)(=O)C(C)C)n2)c(OC(C)C)cc1C1CCNCC1 [Ceritinib dihydrochloride] | 0.3644
Cc1cc(Nc2ncc(Cl)c(Nc3ccccc3S(=O)(=O)C(C)C)n2)c(OC(C)C)cc1C1CCNCC1 [Ceritinib] | 0.1038
CCCCCCCCCCCCCCCC[n+]1ccccc1.O.[Cl-] [Cetylpyridinium (chloride monohydrate)] | −0.01651
CCCCCCCCCCCCCCCC[n+]1ccccc1.[Cl-] [Cetylpyridinium (chloride)] | 0.09243
[H]/N=C(\N/C(=N/[H])NCCCCCCNC(=N)NC(=N)Nc1ccc(Cl)cc1)Nc1ccc(Cl)cc1 [Chlorhexidine] | 0.0819
CC(C)(O)C(Cl)(Cl)Cl [Chlorobutanol] | 0.5641

Same assay, conditions: NCI-H292 cells, complete media

SMILES | Complete
CO/N=C(\C(=O)N[C@@H]1C(=O)N2C(C(=O)[O-])=C(COC(N)=O)CS[C@H]12)c1ccco1.[Na+] [Cefuroxime (sodium)] | 0.9534
O=C(O)COCCN1CCN(C(c2ccccc2)c2ccc(Cl)cc2)CC1 (centres unmarked) [Cetirizine (dihydrochloride)] | 0.9092
CCN(CC)CCOC(=O)c1ccc(N)cc1Cl [Chloroprocaine (hydrochloride)] | 0.8831

Same assay, conditions: NCI-H292 cells, complete media, FDA drug library screen

SMILES | Complete
CC(C)(O/N=C(\C(=O)N[C@@H]1C(=O)N2C(C(=O)[O-])=C(C[n+]3ccccc3)CS[C@H]12)c1csc(N)n1)C(=O)O [Ceftazidime] | 0.8943
CO/N=C(\C(=O)N[C@@H]1C(=O)N2C(C(=O)O)=CCS[C@H]12)c1csc(N)n1 [Ceftizoxime] | 1.057
Cc1cc(Nc2ncc(Cl)c(Nc3ccccc3S(=O)(=O)C(C)C)n2)c(OC(C)C)cc1C1CCNCC1 [Ceritinib dihydrochloride] | 0.3489
Cc1cc(Nc2ncc(Cl)c(Nc3ccccc3S(=O)(=O)C(C)C)n2)c(OC(C)C)cc1C1CCNCC1 [Ceritinib] | 0.05759
CCCCCCCCCCCCCCCC[n+]1ccccc1.O.[Cl-] [Cetylpyridinium (chloride monohydrate)] | 0.01449
CCCCCCCCCCCCCCCC[n+]1ccccc1.[Cl-] [Cetylpyridinium (chloride)] | 0.05797
[H]/N=C(\N/C(=N/[H])NCCCCCCNC(=N)NC(=N)Nc1ccc(Cl)cc1)Nc1ccc(Cl)cc1 [Chlorhexidine] | 0.1259
CC(C)(O)C(Cl)(Cl)Cl [Chlorobutanol] | 0.5799

System: NCI-H292 lung cancer cells
Assay: FDA drug screening, complete media vs cholesterol-free media with simvastatin (TABLE 2)
Assay type: cell-based, human
Conditions: not given

SMILES | Cholesterol-free media + simvastatin (0.04 μM) | Complete Media | Difference
CC(=O)OCC1=C(C(=O)O)N2C(=O)[C@@H](NC(=O)CSc3ccncc3)[C@H]2SC1 [Cephapirin (sodium)] | 2.472 | 1.209 | −1.26
CCN(CC)CCCC(C)Nc1ccnc2cc(Cl)ccc12 (centres unmarked) [Chloroquine] | 2.192 | 0.9997 | −1.19

Same assay, conditions: NCI-H292 cells, FDA drug library screen, cholesterol-free media with simvastatin 0.04 μM

SMILES | Cholesterol-free media + simvastatin (0.04 μM)
CO/N=C(\C(=O)N[C@@H]1C(=O)N2C(C(=O)[O-])=C(COC(N)=O)CS[C@H]12)c1ccco1.[Na+] [Cefuroxime (sodium)] | 1.129
Cc1cc(Nc2ncc(Cl)c(Nc3ccccc3S(=O)(=O)C(C)C)n2)c(OC(C)C)cc1C1CCNCC1 [Ceritinib dihydrochloride] | 0.1666

Same assay, conditions: NCI-H292 cells, FDA drug library screen, complete media

SMILES | Complete Media
CO/N=C(\C(=O)N[C@@H]1C(=O)N2C(C(=O)[O-])=C(COC(N)=O)CS[C@H]12)c1ccco1.[Na+] [Cefuroxime (sodium)] | 1.035
Cc1cc(Nc2ncc(Cl)c(Nc3ccccc3S(=O)(=O)C(C)C)n2)c(OC(C)C)cc1C1CCNCC1 [Ceritinib dihydrochloride] | 0.03677

Same assay, conditions: NCI-H292 cells, FDA library drug in cholesterol-free media with simvastatin 0.04 μM

SMILES | Cholesterol-free media + simvastatin (0.04 μM)
CCN(CC)CCOC(=O)c1ccc(N)cc1Cl [Chloroprocaine (hydrochloride)] | 1.184

Same assay, conditions: NCI-H292 cells, FDA library drug in complete media

SMILES | Complete Media
CCN(CC)CCOC(=O)c1ccc(N)cc1Cl [Chloroprocaine (hydrochloride)] | 0.9029

Same assay, conditions: NCI-H292 cells, cholesterol-free media with simvastatin 0.04 μM; FDA drug library screen (TABLE 2)

SMILES | Cholesterol-free media + simvastatin (0.04 μM)
Cc1cc(Nc2ncc(Cl)c(Nc3ccccc3S(=O)(=O)C(C)C)n2)c(OC(C)C)cc1C1CCNCC1 [Ceritinib] | 0.1163
[H]/N=C(\N/C(=N/[H])NCCCCCCNC(=N)NC(=N)Nc1ccc(Cl)cc1)Nc1ccc(Cl)cc1 [Chlorhexidine] | 0.6176

Same assay, conditions: NCI-H292 cells, cholesterol-free media with simvastatin 0.04 μM; […]

SMILES | Cholesterol-free media + simvastatin (0.04 μM)
CCCCCCCCCCCCCCCC[n+]1ccccc1.O.[Cl-] [Cetylpyridinium (chloride monohydrate)] | 0.1519
CCCCCCCCCCCCCCCC[n+]1ccccc1.[Cl-] [Cetylpyridinium (chloride)] | 0.218

Same assay, conditions: NCI-H292 cells, cholesterol-free media with simvastatin 0.04 μM; cell growth value in FDA drug screen

SMILES | Cholesterol-free media + simvastatin (0.04 μM)
O=C(O)COCCN1CCN(C(c2ccccc2)c2ccc(Cl)cc2)CC1 (centres unmarked) [Cetirizine (dihydrochloride)] | 0.9045

Same assay, conditions: NCI-H292 cells, complete media; FDA drug library screen (TABLE 2)

SMILES | Complete Media
Cc1cc(Nc2ncc(Cl)c(Nc3ccccc3S(=O)(=O)C(C)C)n2)c(OC(C)C)cc1C1CCNCC1 [Ceritinib] | 0.0662
[H]/N=C(\N/C(=N/[H])NCCCCCCNC(=N)NC(=N)Nc1ccc(Cl)cc1)Nc1ccc(Cl)cc1 [Chlorhexidine] | 0.5919

Same assay, conditions: NCI-H292 cells, complete media; […]

SMILES | Complete Media
CCCCCCCCCCCCCCCC[n+]1ccccc1.O.[Cl-] [Cetylpyridinium (chloride monohydrate)] | 0.2714
CCCCCCCCCCCCCCCC[n+]1ccccc1.[Cl-] [Cetylpyridinium (chloride)] | 0.2381

Same assay, conditions: NCI-H292 cells, complete media; cell growth value in FDA drug screen

SMILES | Complete Media
O=C(O)COCCN1CCN(C(c2ccccc2)c2ccc(Cl)cc2)CC1 (centres unmarked) [Cetirizine (dihydrochloride)] | 0.9315

Same assay, conditions: NCI-H292 cells, drug in cholesterol-free media with simvastatin 0.04 μM

SMILES | Cholesterol-free media + simvastatin (0.04 μM)
CC(C)(O/N=C(\C(=O)N[C@@H]1C(=O)N2C(C(=O)[O-])=C(C[n+]3ccccc3)CS[C@H]12)c1csc(N)n1)C(=O)O [Ceftazidime] | 1.391
CO/N=C(\C(=O)N[C@@H]1C(=O)N2C(C(=O)O)=CCS[C@H]12)c1csc(N)n1 [Ceftizoxime] | 1.55
CC(C)(O)C(Cl)(Cl)Cl [Chlorobutanol] | 1.763

Same assay, conditions: NCI-H292 cells, drug in complete media

SMILES | Complete Media
CO/N=C(\C(=O)N[C@@H]1C(=O)N2C(C(=O)O)=CCS[C@H]12)c1csc(N)n1 [Ceftizoxime] | 1.371
CC(C)(O)C(Cl)(Cl)Cl [Chlorobutanol] | 1.523

Same assay, conditions: complete media minus cholesterol-free media + simvastatin (0.04 μM); >0 enhanced anti-cancer activity, about 0 neutral, <0 antagonist

SMILES | Difference
Cc1cc(Nc2ncc(Cl)c(Nc3ccccc3S(=O)(=O)C(C)C)n2)c(OC(C)C)cc1C1CCNCC1 [Ceritinib] | 0.05
[H]/N=C(\N/C(=N/[H])NCCCCCCNC(=N)NC(=N)Nc1ccc(Cl)cc1)Nc1ccc(Cl)cc1 [Chlorhexidine] | −0.03

Same assay, conditions: complete media minus cholesterol-free media + simvastatin; >0 enhanced anti-cancer activity, about 0 neutral, <0 antagonist

SMILES | Difference
O=C(O)COCCN1CCN(C(c2ccccc2)c2ccc(Cl)cc2)CC1 (centres unmarked) [Cetirizine (dihydrochloride)] | 0.03

Same assay, conditions: complete media minus cholesterol-free media + simvastatin; […]

SMILES | Difference
CCCCCCCCCCCCCCCC[n+]1ccccc1.O.[Cl-] [Cetylpyridinium (chloride monohydrate)] | 0.12
CCCCCCCCCCCCCCCC[n+]1ccccc1.[Cl-] [Cetylpyridinium (chloride)] | 0.02

Same assay, conditions: complete media vs cholesterol-free media + simvastatin (0.04 μM); >0 enhanced anti-cancer activity, about 0 neutral, <0 antagonist

SMILES | Difference
CC(C)(O/N=C(\C(=O)N[C@@H]1C(=O)N2C(C(=O)[O-])=C(C[n+]3ccccc3)CS[C@H]12)c1csc(N)n1)C(=O)O [Ceftazidime] | −0.24
CO/N=C(\C(=O)N[C@@H]1C(=O)N2C(C(=O)O)=CCS[C@H]12)c1csc(N)n1 [Ceftizoxime] | −0.18
CO/N=C(\C(=O)N[C@@H]1C(=O)N2C(C(=O)[O-])=C(COC(N)=O)CS[C@H]12)c1ccco1.[Na+] [Cefuroxime (sodium)] | −0.09
Cc1cc(Nc2ncc(Cl)c(Nc3ccccc3S(=O)(=O)C(C)C)n2)c(OC(C)C)cc1C1CCNCC1 [Ceritinib dihydrochloride] | −0.13
CC(C)(O)C(Cl)(Cl)Cl [Chlorobutanol] | −0.24
CCN(CC)CCOC(=O)c1ccc(N)cc1Cl [Chloroprocaine (hydrochloride)] | −0.28
